Data on 1 compound can be found in patent US11793816B2, “Methods for enhancing cytotoxic cancer therapy through inhibition of ATG4B” (Northwestern University, priority 2019, dated 2023).

Like-named read-outs stand apart in the source and are kept apart here.

The nature of series [1]: Toxicity evaluation of NSC185058 in mouse organs (behavior, hematoxylin and eosin staining). In kind it is in vivo, mice. The settings on record: for pathologic analysis of vital organs (hematoxylin and eosin): 150 mg/kg Monday, brain, heart, liver, lung, kidney, spleen, one week after last dosing. On the procedure:
(§1) FIG. 1. NSC185058 (NSC) effectively distributes to the plasma, the brain, and the liver with minimal toxicity in mice. (A) to (C) Mice were dosed with peanut oil vehicle or ATG4B antagonists NSC185058 at doses of 10 or 50 mg/kg body weight. Plasma, the brain, and the liver tissues were collected at the indicated time points. (A) Total concentrations of the NSC compound in plasma were measured by LC-MS/MS. The PK parameter of NSC in plasma was determined. (B) NSC levels in plasma were determined form 5 min to 24 hr post dosing. The chemical structure of NSC was shown. (C) NSC levels were determined in the plasma, the brain, and the liver tissues at 0.5 and 8 hr post dosing. (D) Hematoxylin and eosin stained section s of indicated organs that were treated with NSC (150 mg/kg body weight) or vehicle on Monday, Wednesday, and Friday for three weeks. Scale bars, 50 μm. n=3 mice/group/time point.
Mice were randomized into two groups before the start of experiment. Animals received peanut oil vehicle (control) or ATG4B antagonists NSC185058 (150 mg/kg body weight) on Monday, Wednesday, and Friday for tow to three weeks. Then, mouse tissues and organs including the liver, the kidney, the lung, the spleen, the heart, and the brain were collected after one week post last dose. All specimens were immediately formalin-fixed for 24-36 hrs and then embedded in paraffin embedded. Five micrometer-thick serial sections were obtained from each samples for standard hematoxylin and eosin staining.
(§2) The NSC was administered at the dose of 10 or 50 mg/kg body weight in group of three mice. At the indicated time points spanning a 24 hrs period ([…], 0.5, 1, 2, 4, 8, and 24 hour), the plasma, the brain, and the liver tissues were collected. Plasmid and extracts from the brain and the liver were analyzed by LC-MS/MS using method developed at the Illinois Institute of Technology Research Institute (IITRI). […] Plasma exposure appears to increase beyond the hinge in dose for the dosing range tested. The elimination half-life was 2 and 4 for the 10 and 50 mg/kg dose, respectively. […] To examine whether NSC is tolerated in mouse, we investigated the effect induced by NSC in mouse behavior or by pathologic analysis of vital organs including the brain, the heart, the liver, the lung, the kidney, and the spleen. Mice underwent treatments on Monday, Wednesday, and Friday for three week with either peanut oil (vehicle) or NSC (150 mg/kg body weight) in peanut oil. […] Animal tissues were collected one week after the last dosing and subject for hematoxylin and eosin staining.

Series [2] can be described thus: Pharmacokinetic studies in mice: NSC185058 in plasma, brain and liver by LC-MS/MS. Format: in vivo. Conditions: for Cmax / AUC / half-life: plasma; for Cmax: read-out: average maximum plasma concentration (Cmax); for AUC: read-out: Area under the curve (AUC) for the plasma; for half-life: read-out: elimination half-life (converted). The method, then:
as §1
Athymic (Ncr nu/nu) mice were injected intraperitoneal (i.p.) with peanut oil vehicle or ATG4B antagonists NSC185058 (50 mg/kg body weight for high does group and 10 mg/kg body weight for low does group). Mouse blood was withdrawn by terminal cardiac puncture while the animals were anesthetized with isoflurane. Blood samples were collected in tubes containing K2EDTA as the anticoagulant at 5, 15, and 30 minutes; 1, 2, 4, 8, and 24 hours post-dose for treatment groups. Mouse brain and liver tissue were also collected from the study animals at 1, 2, 4, and 8 hours post-dose. Control group animals were sacrificed at 24 hours after vehicle injection. Blood samples were centrifuged within one hour of collection and plasma was frozen at approximately −80° C. until analyzed at for concentration of the drug. Total concentrations of the NSC185058 compound in the plasma, the liver, and the brain were measured by LC-MS/MS at Illinois Institute of Technology Research Institute.
as §2

The subject of series [3] is mTORC1 and mTORC2 activity in GSC M83 and JK83 cells. Description: Immunoblot of mTORC1 and mTORC2 activity in GSCs. Format: cell-based. The settings on record: GSC83 and JK83 cells, 72 hr. On the procedure: FIG. 5. A mTORC1/2 inhibitor AZD2014 inhibited cell survival, mTORC1 and mTORC2 activities in GSCs and glioma cells. (A) GSC M83 and JK83 and glioma cells U87 were treated with indicated concentration of AZD2014 for 72 h, then cell viability was evaluated. (B) GSC M83 and JK83 were treated with the indicated concentration of AZD2014 for 1 hr, or with 2 μM AZD2014 for the specified time. Cells were collected for immunoblot analysis. β-actin was used as a loading control; Results are representative of 2 independent experiments. *P<0.05, **P<0.01, paired two-way Student's t-test. Data are representative from three independent experiments with similar results.
FIG. 6. NSC enhanced the cytotoxicity of a mTORC1/2 inhibitor AZD2014 in GSCs. (A) GSC M83 and JK83 were exposed to DMSO control vs AZD2014 vs NSCs vs AZD2014 in combination with NSC for 72 hr. Cells were collected for immunoblot analysis using indicated antibodies. (B) Immunofluorescence analyses for LC3B puncta in GSC M83 and JK83 cells with indicated treatments. (C and D) GSC M83 and JK83 and/or neural progenitor cells (NPC) were treated as indicated in (A), cell viability was tested at 72 h after treatment (C), and cell apoptosis was measured by Annexin V FACS assay 48 h after treatment. Data are representative from three independent experiments with similar results.
IB assays were performed as previously described (Huang et al., 2016b). Specific antibodies were used according to the manufacturer's instructions: LC3B (#3868S), pAKT (Ser473; 4060), pAKT(Thr308; 4056), AKT (4691), pS6(S235/236; 2211), S6 (2317), phosphorylated 4E-binding protein 1 (p4EBP1) (Thr37/46; 2855), 4EBP1 (9644), p-mTOR (Ser2448; 2971S), p-mTOR (Ser2481; 2974S), mTOR (2972S), pULK1(Ser317; 14202T), pULK1 (Ser757; 8054T), ULK1(6439), LAMP2 (49067S) were from Cell Signaling Technology. Anti-β-actin (SC-47778) and anti-SQSTM1/p62 (SC-28359) antibodies were from Santa Cruz Biotechnology. An anti-Ki-67 antibody (AB9260) was from EMD Millipore.
mTOR kinases are crucial regulators of glioma cell growth, proliferation and survival (Akhavan et al., 2010). […] A strong inhibition was achieved by 1 μM with complete block of mTORC1/2 activities at 2 μM (FIG. 5B).
Since autophagy activation is considered as a cytoprotective factor that contribute to tumor survival when challenged by therapies, it is proposed that block of autophagy activation by NSC would further enhanced the cytotoxicity of dual TORC1/2 inhibitor AZD2014.
In general terms: In western blotting, separated proteins are transferred to a membrane and probed.

[4] abbreviates: athymic Ncr nu/nu, mouse, IP 10 mg/kg.
The mark [5] stands for this setting: athymic Ncr nu/nu, mouse, IP 50 mg/kg.

By AUC is commonly meant the area under the concentration-time curve, a measure of exposure. The term half-life denotes the time needed for the level to fall by half in the phase considered. Consider `S=C(Nc1ccccn1)c1ccccn1` [NSC185058, N-pyridin-2-yl-pyridine-2-carbothioamide], for which the “pathologic analysis of vital organs (hematoxylin and eosin)” value is listed as “no relevant tissue toxicity” in series [1] (Wednesday, Friday for three weeks) and “no morphological changes or abnormal findings” in series [1] (Wednesday, Friday for three weeks, listed as NSC). For the same compound, in series [1] (150 mg/kg in peanut oil, Monday, Wednesday, Friday for three weeks), the mouse behavior result is “did not display behavioral changes”. Further, in series [1] (mice), the “toxic effects on the animals” value is listed as “did not display any toxic effects”. Also, the figures for the blood-brain barrier penetration entry in series [2] and in series [2] (listed as NSC) were “excellent blood/brain barrier (BBB) penetration” and “penetrates the tumor blood-brain barrier at sufficient levels”, respectively. In addition, the Cmax turned out to be 2.6 µM in series [2] (athymic Ncr nu/nu, mouse, IP single dose 10 mg/kg) and 33 µM in series [2] (athymic Ncr nu/nu, mouse, IP single dose 50 mg/kg). For the same compound, the Kp in series [2] (athymic Ncr nu/nu, mouse, IP, brain vs plasma, read-out: average brain tissue concentration relative to that in the plasma at the same time points) fell in the range of 0.4 to 1. Also, the concentration at 0.5 h in series [2] (athymic Ncr nu/nu, mouse, brain, 50 mg/kg, 0.5 hrs post IP dose, read-out: Average brain tissue concentration) is 12000 ng/g. In series [2] (athymic Ncr nu/nu, mouse, brain, 50 mg/kg, 8 hrs post IP dose, read-out: Average brain tissue concentration), the concentration at 8 h amounted to 4100 ng/g. Further, the results for the AUC in series [2] (setting [4]) and in series [2] (setting [5]) were 2140 ng·h/mL and 57200 ng·h/mL, respectively. The half-life in series [2] (setting [4]) is 2 h; in series [2] (setting [5]) it was 4 h. The “mTOR signaling and ULK1 phosphorylation” value in series [3] is “without affecting the mTOR signaling and ULK1 activity”.
